≈ marks a conversion by molar mass, not a printed value.
Tests used:
NB4 = assay: Leukemia cell growth inhibition, MTT, 72 h; type: cell-based, human; conditions: Homo sapiens, NB-4; 72 h, MTT
Outline: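 MTT read-out of viable cell concentration after 72 hours of exposure at 37° C under 5% CO2. Compounds were dosed at several concentrations one day after plating 6000 cells per well.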

H9 = assay: Leukemia cell growth inhibition, MTT, 72 h; type: cell-based, human; conditions: Homo sapiens, H9; 72 h, MTT
Outline: (§1)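 Leukemia lines used were drug-resistant CML K562/ADR, ALL lines H9 and Jurkat, and AML-M2 Kasumi-1. Each was plated at 6000 cells per well and exposed to varying compound concentrations from day two for 72 hours, then assayed by MTT.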

Jurkat = assay: Leukemia cell growth inhibition, MTT, 72 h; type: cell-based, human; conditions: Homo sapiens, Jurkat; 72 h, MTT
Outline: as §1

RPMI 8226 = assay: Multiple myeloma cell growth inhibition, MTT, 72 h; type: cell-based; conditions: Homo sapiens
Outline: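 Growth inhibition by MTT after 72 h drug exposure (37 °C, 5% CO2) over a concentration range of oridonin derivatives. RPMI 8226 cells plated at 6000 per well and dosed the following day.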

Kasumi-1 = assay: Leukemia cell growth inhibition, MTT, 72 h; type: cell-based; conditions: Homo sapiens
Outline: as §1

K562/ADR = assay: Leukemia cell growth inhibition, MTT, 72 h; type: cell-based; conditions: Homo sapiens
Outline: as §1

Hep-2 = assay: Solid tumor cell growth inhibition, MTT, 72 h; type: cell-based, human; conditions: Homo sapiens, HEp-2; 72 h, MTT
Outline: (§2)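 Plating density was 6000 cells per well, in DMEM High Glucose medium with 10% serum, kept at 37° C in 5% CO2 throughout.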

MGC-803 = assay: Solid tumor cell growth inhibition, MTT, 72 h; type: cell-based, human; conditions: Homo sapiens, MGC-803; 72 h, MTT
Outline: as §2

Hela = assay: Solid tumor cell growth inhibition, MTT, 72 h; type: cell-based, human; conditions: Homo sapiens, HeLa; 72 h, MTT
Outline: as §2

CNE = assay: Solid tumor cell growth inhibition, MTT, 72 h; type: cell-based, human; conditions: Homo sapiens, CNE; 72 h, MTT
Outline: as §2

U87-MG = assay: Solid tumor cell growth inhibition, MTT, 72 h; type: cell-based; conditions: Homo sapiens, U-87 MG
Outline: as §2

Becap-37 = assay: Solid tumor cell growth inhibition, MTT, 72 h; type: cell-based; conditions: Homo sapiens
Outline: as §2

PC-3 = assay: Solid tumor cell growth inhibition, MTT, 72 h; type: cell-based; conditions: Homo sapiens
Outline: as §2

PANC-1 = assay: Solid tumor cell growth inhibition, MTT, 72 h; type: cell-based; conditions: Homo sapiens
Outline: as §2

RKO = assay: Solid tumor cell growth inhibition, MTT, 72 h; type: cell-based; conditions: Homo sapiens
Outline: as §2

CaEs-17 = assay: Solid tumor cell growth inhibition, MTT, 72 h; type: cell-based; conditions: Homo sapiens, CaEs17
Outline: as §2

SK-OV-3 = assay: Solid tumor cell growth inhibition, MTT, 72 h; type: cell-based; conditions: Homo sapiens, SK-OV-3, 72 h, MTT; for IC50: read-out: IC50 SK-OV-3; for IC90: read-out: IC90 SK-OV-3
Outline: as §2

A549 = assay: Solid tumor cell growth inhibition, MTT, 72 h; type: cell-based; conditions: Homo sapiens
Outline: as §2

MG-63 = assay: Solid tumor cell growth inhibition, MTT, 72 h; type: cell-based; conditions: Homo sapiens
Outline: as §2

Hep G2 = assay: Solid tumor cell growth inhibition, MTT, 72 h; type: cell-based; conditions: Homo sapiens, HepG2
Outline: as §2

Row | Structure (SMILES) | IC50 (NB4) | IC90 (NB4) | IC50 (H9) | IC90 (H9) | IC50 (Jurkat) | IC90 (Jurkat) | IC50 (RPMI 8226) | IC90 (RPMI 8226) | IC50 (Kasumi-1) | IC90 (Kasumi-1) | IC50 (K562/ADR) | IC90 (K562/ADR) | IC50 (Hep-2) | IC90 (Hep-2) | IC50 (MGC-803) | IC90 (MGC-803) | IC50 (Hela) | IC90 (Hela) | IC50 (CNE) | IC90 (CNE) | further results
1 | C=C1C(=O)[C@]23[C@H](OC(=O)c4ccccc4Br)[C@H]1CC[C@H]2[C@@]12CO[C@@]3(O)[C@@H](O)[C@@H]1C(C)(C)CCC2=O [BS-OR-020] | 0.27 µg/mL (≈ 0.495 µM) | 1.34 µg/mL (≈ 2.46 µM) | 0.89 µg/mL (≈ 1.63 µM) | 1.84 µg/mL (≈ 3.37 µM) | 0.88 µg/mL (≈ 1.61 µM) | 4.31 µg/mL (≈ 7.9 µM) | 0.59 µg/mL (≈ 1.08 µM) | 3.84 µg/mL (≈ 7.04 µM) | 0.76 µg/mL (≈ 1.39 µM) | 2.85 µg/mL (≈ 5.23 µM) | 0.73 µg/mL (≈ 1.34 µM) | 2.31 µg/mL (≈ 4.24 µM) | 1.92 µg/mL (≈ 3.52 µM) | 7.4 µg/mL (≈ 13.6 µM) | 1.65 µg/mL (≈ 3.03 µM) | 8.86 µg/mL (≈ 16.2 µM) | 1.79 µg/mL (≈ 3.28 µM) | 7.19 µg/mL (≈ 13.2 µM) | 1.8 µg/mL (≈ 3.3 µM) | 7.21 µg/mL (≈ 13.2 µM) | IC50 (U87-MG): 1.19 µg/mL (≈ 2.18 µM); IC90 (U87-MG): 3.69 µg/mL (≈ 6.77 µM); IC50 (Becap-37): 1.31 µg/mL (≈ 2.4 µM); IC90 (Becap-37): 3.95 µg/mL (≈ 7.24 µM); IC50 (PC-3): 2.56 µg/mL (≈ 4.69 µM); IC90 (PC-3): 7.07 µg/mL (≈ 13 µM); IC50 (PANC-1): 2.32 µg/mL (≈ 4.25 µM); IC90 (PANC-1): 6.09 µg/mL (≈ 11.2 µM); IC50 (RKO): 0.84 µg/mL (≈ 1.54 µM); IC90 (RKO): 1.94 µg/mL (≈ 3.56 µM); IC50 (CaEs-17): 1.78 µg/mL (≈ 3.26 µM); IC90 (CaEs-17): 7.28 µg/mL (≈ 13.3 µM); IC50 (SK-OV-3): 2.56 µg/mL (≈ 4.69 µM); IC90 (SK-OV-3): 7.07 µg/mL (≈ 13 µM); IC50 (A549): 2.76 µg/mL (≈ 5.06 µM); IC90 (A549): 5.78 µg/mL (≈ 10.6 µM); IC50 (MG-63): 0.76 µg/mL (≈ 1.39 µM); IC90 (MG-63): 4.52 µg/mL (≈ 8.29 µM); IC50 (Hep G2): 1.68 µg/mL (≈ 3.08 µM); IC90 (Hep G2): 7.35 µg/mL (≈ 13.5 µM)
2 | C=C1C(=O)[C@]23[C@H](OC(=O)C4CCN(S(=O)(=O)c5ccccc5)CC4)[C@H]1CC[C@H]2[C@@]12CO[C@@]3(O)[C@@H](O)[C@@H]1C(C)(C)CCC2=O [BS-OR-032] | 4.09 µg/mL (≈ 6.66 µM) | 9.77 µg/mL (≈ 15.9 µM) | 6.71 µg/mL (≈ 10.9 µM) | 12.7 µg/mL (≈ 20.7 µM) | 0.93 µg/mL (≈ 1.52 µM) | 6.15 µg/mL (≈ 10 µM) | 1.34 µg/mL (≈ 2.18 µM) | 2.95 µg/mL (≈ 4.81 µM) | 1.5 µg/mL (≈ 2.44 µM) | 2.92 µg/mL (≈ 4.76 µM) | 1.09 µg/mL (≈ 1.78 µM) | 2.97 µg/mL (≈ 4.84 µM) | > 16 µg/mL | > 16 µg/mL | 12.7 µg/mL (≈ 20.7 µM) | > 16 µg/mL | 2.63 µg/mL (≈ 4.29 µM) | 5.67 µg/mL (≈ 9.24 µM) | > 16 µg/mL | > 16 µg/mL | IC50 (U87-MG): 1.26 µg/mL (≈ 2.05 µM); IC90 (U87-MG): 4.56 µg/mL (≈ 7.43 µM); IC50 (Becap-37): 2.93 µg/mL (≈ 4.77 µM); IC90 (Becap-37): 10.5 µg/mL (≈ 17.1 µM); IC50 (PC-3): 3.07 µg/mL (≈ 5 µM); IC90 (PC-3): 5.41 µg/mL (≈ 8.81 µM); IC50 (PANC-1): 3.61 µg/mL (≈ 5.88 µM); IC90 (PANC-1): 7.88 µg/mL (≈ 12.8 µM); IC50 (RKO): 0.89 µg/mL (≈ 1.45 µM); IC90 (RKO): 1.99 µg/mL (≈ 3.24 µM); IC50 (CaEs-17): 1.62 µg/mL (≈ 2.64 µM); IC90 (CaEs-17): 11.7 µg/mL (≈ 19.1 µM); IC50 (SK-OV-3): 3.07 µg/mL (≈ 5 µM); IC90 (SK-OV-3): 5.41 µg/mL (≈ 8.81 µM); IC50 (A549): 5.68 µg/mL (≈ 9.25 µM); IC90 (A549): 9.98 µg/mL (≈ 16.3 µM); IC50 (MG-63): 0.98 µg/mL (≈ 1.6 µM); IC90 (MG-63): 1.97 µg/mL (≈ 3.21 µM); IC50 (Hep G2): 3.17 µg/mL (≈ 5.17 µM); IC90 (Hep G2): ≥ 17.2 µg/mL
